Source: ChEMBL document CHEMBL1949653, “Novel heterocyclic DPP-4 inhibitors for the treatment of type 2 diabetes” (Bioorg Med Chem Lett, 2012)

Tests used:
[1] = biological target: Voltage-gated inwardly rectifying potassium channel KCNH2 (Homo sapiens, UniProt Q12809); test: Inhibition of human ERG by dofetilide binding assay
[2] = biological target: Cytochrome P450 3A4 (Homo sapiens, UniProt P08684); test: Inhibition of CYP3A4; type: ADME
[3] = biological target: T1, Muscarinic acetylcholine receptor M1 (Homo sapiens, UniProt P11229); test: Inhibition of M1 receptor
T1 sequence (P11229 whole entry): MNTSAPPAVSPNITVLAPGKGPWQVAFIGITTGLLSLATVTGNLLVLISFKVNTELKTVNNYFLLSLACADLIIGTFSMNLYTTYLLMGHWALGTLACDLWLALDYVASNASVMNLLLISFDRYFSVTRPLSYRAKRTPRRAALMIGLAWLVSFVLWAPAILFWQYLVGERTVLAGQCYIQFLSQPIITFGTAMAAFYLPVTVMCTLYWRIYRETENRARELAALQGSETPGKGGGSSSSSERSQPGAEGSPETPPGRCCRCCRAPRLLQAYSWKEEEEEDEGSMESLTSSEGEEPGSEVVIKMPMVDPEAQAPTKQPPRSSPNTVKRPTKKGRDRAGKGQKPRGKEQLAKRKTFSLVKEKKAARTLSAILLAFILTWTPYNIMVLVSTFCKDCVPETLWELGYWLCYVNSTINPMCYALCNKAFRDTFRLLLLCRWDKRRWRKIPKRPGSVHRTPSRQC

[4] = species on record: Rattus norvegicus; test: animal or person; conditions: po, 5 h, read-out: INH
[5] = Intrinsic clearance in rat liver microsome; type: ADME; conditions: liver microsomes, read-out: CLH
[6] = Permeability from apical side to basal side of human Caco2 cells; conditions: Caco-2
[7] = system: Rattus norvegicus; test: Ex-vivo inhibition of DPP4 in Wistar rat at 3 mg/kg, po up to 8 hrs post-administration; type: functional
[8] = Inhibition of Cytochrome P450; type: ADME
[9] = Clearance in rat at 1 mg/kg, iv; type: ADME, organism-based; parameters: dose 1 mg/kg, route intravenous; conditions: in vivo
[10] = Cmax in rat; type: ADME, organism-based; conditions: in vivo
[11] = AUC in rat; type: ADME, organism-based; conditions: plasma
[12] = Oral bioavailability in rat; type: ADME, organism-based; conditions: in vivo

Cytochrome P450 3A4, sequence (P08684 whole entry): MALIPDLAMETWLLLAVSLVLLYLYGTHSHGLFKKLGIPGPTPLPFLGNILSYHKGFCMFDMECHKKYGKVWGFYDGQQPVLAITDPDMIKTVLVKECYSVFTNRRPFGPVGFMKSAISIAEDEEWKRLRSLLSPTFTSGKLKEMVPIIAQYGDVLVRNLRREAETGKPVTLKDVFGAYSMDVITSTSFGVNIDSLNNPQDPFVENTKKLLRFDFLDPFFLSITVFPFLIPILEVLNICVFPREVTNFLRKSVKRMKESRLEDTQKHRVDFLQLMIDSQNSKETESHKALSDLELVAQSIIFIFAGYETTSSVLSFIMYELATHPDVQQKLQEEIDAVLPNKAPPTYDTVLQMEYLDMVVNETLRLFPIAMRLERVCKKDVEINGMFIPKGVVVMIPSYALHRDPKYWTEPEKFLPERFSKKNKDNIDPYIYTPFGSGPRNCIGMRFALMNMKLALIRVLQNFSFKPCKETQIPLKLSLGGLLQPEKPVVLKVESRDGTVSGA
Voltage-gated inwardly rectifying potassium channel KCNH2, sequence (Q12809 whole entry): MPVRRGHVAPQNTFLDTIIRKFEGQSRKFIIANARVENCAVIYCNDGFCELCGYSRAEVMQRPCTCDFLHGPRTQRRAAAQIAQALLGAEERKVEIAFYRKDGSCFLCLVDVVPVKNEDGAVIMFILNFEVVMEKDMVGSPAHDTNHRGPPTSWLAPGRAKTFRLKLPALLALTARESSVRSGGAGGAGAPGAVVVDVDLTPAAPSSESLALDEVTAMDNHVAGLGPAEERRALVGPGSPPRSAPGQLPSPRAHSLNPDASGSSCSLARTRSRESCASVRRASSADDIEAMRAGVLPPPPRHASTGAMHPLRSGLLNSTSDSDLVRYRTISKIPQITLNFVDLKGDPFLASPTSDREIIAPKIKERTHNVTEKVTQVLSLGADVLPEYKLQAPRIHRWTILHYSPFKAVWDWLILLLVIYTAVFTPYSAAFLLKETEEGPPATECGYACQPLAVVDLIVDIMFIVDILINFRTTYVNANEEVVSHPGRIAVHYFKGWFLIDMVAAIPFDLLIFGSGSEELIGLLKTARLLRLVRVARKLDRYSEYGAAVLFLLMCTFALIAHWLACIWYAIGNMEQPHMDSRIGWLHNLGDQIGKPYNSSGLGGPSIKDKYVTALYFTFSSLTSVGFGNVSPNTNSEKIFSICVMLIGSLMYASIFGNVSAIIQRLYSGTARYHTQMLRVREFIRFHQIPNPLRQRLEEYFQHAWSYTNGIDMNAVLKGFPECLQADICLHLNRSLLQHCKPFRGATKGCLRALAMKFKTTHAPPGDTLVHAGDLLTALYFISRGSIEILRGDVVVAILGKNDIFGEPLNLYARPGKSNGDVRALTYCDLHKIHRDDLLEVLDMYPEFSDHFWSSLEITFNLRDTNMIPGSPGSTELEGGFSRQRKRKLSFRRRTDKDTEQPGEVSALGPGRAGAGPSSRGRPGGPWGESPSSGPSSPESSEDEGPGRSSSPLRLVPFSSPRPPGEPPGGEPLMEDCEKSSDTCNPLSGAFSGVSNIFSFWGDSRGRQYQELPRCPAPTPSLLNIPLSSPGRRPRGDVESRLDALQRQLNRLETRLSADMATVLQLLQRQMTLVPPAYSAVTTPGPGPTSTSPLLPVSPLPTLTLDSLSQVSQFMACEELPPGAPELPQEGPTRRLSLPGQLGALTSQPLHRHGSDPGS

Row | Structure (SMILES) | IC50 [3] | also measured
1 | CC(C)=CCn1c(N2CCCNCC2)c(C#N)c2c1c(=O)n(Cc1c(C#N)cnc3ccccc13)c(=O)n2C | > 10 µM | IC50 [1]: 0.9 µM; IC50 [2]: ≤ 3 µM
2 | CC#CCn1c(N2CCCNCC2)c(C#N)c2c1c(=O)n(Cc1ncc3ccccc3c1C#N)c(=O)n2C | > 10 µM | IC50 [1]: 12 µM
3 | Cn1cnc2c(C#N)c(N3CCNCC3)n(Cc3ccccc3)c2c1=O | > 10 µM | 
4 | COc1cccc(C(=O)Cn2cnc3c(C#N)c(N4CCNCC4)n(Cc4ccccc4)c3c2=O)c1 | > 10 µM | 
5 | CC#CCn1c(N2CCNCC2)c(C#N)c2ncn(CC(=O)c3cccc(OC)c3)c(=O)c21 | > 10 µM | 
6 | COc1cccc(C(=O)Cn2cnc3c(C#N)c(N4CCNCC4)n(CC=C(C)C)c3c2=O)c1 | > 10 µM | 
7 | Cn1cnc2c(C#N)c(N3CCC[C@H](N)C3)n(Cc3ccccc3)c2c1=O | > 10 µM | 
8 | COc1cccc(C(=O)Cn2cnc3c(C#N)c(N4CCC[C@@H](N)C4)n(Cc4ccccc4)c3c2=O)c1 | > 10 µM | 
9 | COc1cccc(C(=O)Cn2cnc3c(C#N)c(N4CCC[C@H](N)C4)n(Cc4ccccc4)c3c2=O)c1 | > 10 µM | 
10 | N#Cc1c(N2CCC[C@H](N)C2)n(Cc2ccccc2)c2c(=O)n(Cc3ccnc4ccccc34)cnc12 | > 10 µM | 
11 | CC#CCn1c(N2CCC[C@@H](N)C2)c(C#N)c2ncn(CC(=O)c3cccc(OC)c3)c(=O)c21 | > 10 µM | 
12 | CC#CCn1c(N2CCC[C@H](N)C2)c(C#N)c2ncn(CC(=O)c3cccc(OC)c3)c(=O)c21 | > 10 µM | 
13 | CC#CCn1c(N2CCC[C@H](N)C2)c(C#N)c2ncn(Cc3ccnc4ccccc34)c(=O)c21 | > 10 µM | 
14 | CC#CCn1c(N2CCC[C@H](N)C2)c(C#N)c2ncn(Cc3nccc4ccccc34)c(=O)c21 | > 10 µM | 
15 | COc1cccc(C(=O)Cn2cnc3c(C#N)c(N4CCC[C@@H](N)C4)n(CC=C(C)C)c3c2=O)c1 | > 10 µM | 
16 | COc1cccc(C(=O)Cn2cnc3c(C#N)c(N4CCC[C@H](N)C4)n(CC=C(C)C)c3c2=O)c1 | > 10 µM | 
17 | CC(C)=CCn1c(N2CCC[C@H](N)C2)c(C#N)c2ncn(Cc3ccnc4ccccc34)c(=O)c21 | > 10 µM | 
18 | CC(C)=CCn1c(N2CCC[C@H](N)C2)c(C#N)c2ncn(Cc3nccc4ccccc34)c(=O)c21 | > 10 µM | inhibition in vivo at 3 mg/kg [4]: 60%
19 | CC(C)=CCn1c(N2CCC[C@H](N)C2)c(C#N)c2ncn(Cc3nc(C)c4ccccc4n3)c(=O)c21 | > 10 µM | 
20 | CC(C)=CCn1c(N2CCC[C@H](N)C2)c(C#N)c2ncn(Cc3ncc4ccccc4n3)c(=O)c21 | > 10 µM | CLint scaled [5]: 67 mL/min/kg
21 | CC(C)=CCn1c(N2CCC[C@H](N)C2)c(C#N)c2ncn(C)c(=O)c21 | > 10 µM | 
22 | N#Cc1c(N2CCCNCC2)n(Cc2ccccc2)c2c(=O)n(Cc3nccc4ccccc34)cnc12 | > 10 µM | 
23 | CC(C)=CCn1c(N2CCCNCC2)c(C#N)c2ncn(Cc3nccc4ccccc34)c(=O)c21 | > 10 µM | 
24 | CC#CCn1c(N2CCCNCC2)c(C#N)c2ncn(Cc3nccc4ccccc34)c(=O)c21 | > 10 µM | 

Row | Structure (SMILES) | IC50 [3] | also measured
25 | CC#CCn1c(N2CCCNCC2)c(C#N)c2ncn(Cc3nc(C)c4ccccc4n3)c(=O)c21 | > 10 µM | Papp A→B [6]: 1.7 ×10⁻⁶ cm/s
26 | CC#CCn1c(N2CCCNCC2)c(C#N)c2ncn(Cc3ncc4ccccc4n3)c(=O)c21 | > 10 µM | Papp A→B [6]: 0.6 ×10⁻⁶ cm/s
27 | COc1cccc(C(=O)Cn2c(=O)c3c(c(C#N)c(N4CCC[C@H](N)C4)n3Cc3ccccc3)n(C)c2=O)c1 | > 10 µM | 
28 | Cn1c(=O)n(Cc2nccc3ccccc23)c(=O)c2c1c(C#N)c(N1CCC[C@H](N)C1)n2Cc1ccccc1 | > 10 µM | IC50 [1]: 2.8 µM; IC50 [2]: ≤ 3 µM
29 | Cn1c(=O)c2c(c(C#N)c(N3CCC[C@H](N)C3)n2Cc2ccccc2)n(C)c1=O | > 10 µM | 
30 | COc1cccc(C(=O)Cn2c(=O)c3c(c(C#N)c(N4CCC[C@H](N)C4)n3CC=C(C)C)n(C)c2=O)c1 | > 10 µM | IC50 [1]: 1.6 µM; IC50 [2]: ≤ 3 µM
31 | CC(C)=CCn1c(N2CCC[C@H](N)C2)c(C#N)c2c1c(=O)n(Cc1nccc3ccccc13)c(=O)n2C | > 10 µM | 
32 | CC(C)=CCn1c(N2CCC[C@H](N)C2)c(C#N)c2c1c(=O)n(Cc1nc(C)c3ccccc3n1)c(=O)n2C | > 10 µM | IC50 [1]: 6.7 µM; IC50 [2]: ≤ 3 µM
33 | CC(C)=CCn1c(N2CCC[C@H](N)C2)c(C#N)c2c1c(=O)n(Cc1cnc3ccccc3n1)c(=O)n2C | > 10 µM | IC50 [2]: ≤ 3 µM
34 | CC(C)=CCn1c(N2CCC[C@H](N)C2)c(C#N)c2c1c(=O)n(Cc1ncccc1C#N)c(=O)n2C | > 10 µM | IC50 [1]: 16.9 µM; IC50 [2]: ≤ 3 µM
35 | CC#CCn1c(N2CCC[C@H](N)C2)c(C#N)c2c1c(=O)n(CC(=O)c1cccc(OC)c1)c(=O)n2C | > 10 µM | 
36 | CC#CCn1c(N2CCC[C@H](N)C2)c(C#N)c2c1c(=O)n(Cc1nccc3ccccc13)c(=O)n2C | > 10 µM | IC50 [1]: 28.2 µM
37 | CC#CCn1c(N2CCC[C@@H](N)C2)c(C#N)c2c1c(=O)n(Cc1nc(C)c3ccccc3n1)c(=O)n2C | > 10 µM | IC50 [1]: 21.7 µM
38 | CC#CCn1c(N2CCC[C@H](N)C2)c(C#N)c2c1c(=O)n(Cc1nc(C)c3ccccc3n1)c(=O)n2C | > 10 µM | IC50 [1]: > 30 µM
39 | COc1cccc(C(=O)Cn2c(=O)c3c(c(C#N)c(N4CCCNCC4)n3CC=C(C)C)n(C)c2=O)c1 | > 10 µM | IC50 [1]: 1.1 µM; IC50 [2]: ≤ 3 µM
40 | CC(C)=CCn1c(N2CCCNCC2)c(C#N)c2c1c(=O)n(Cc1nccc3ccccc13)c(=O)n2C | > 10 µM | 
41 | CC(C)=CCn1c(N2CCCNCC2)c(C#N)c2c1c(=O)n(Cc1nc(C)c3ccccc3n1)c(=O)n2C | > 10 µM | IC50 [2]: ≤ 3 µM
42 | CC(C)=CCn1c(N2CCCNCC2)c(C#N)c2c1c(=O)n(Cc1cn3ccccc3n1)c(=O)n2C | > 10 µM | IC50 [2]: ≤ 3 µM
43 | CC(C)=CCn1c(N2CCCNCC2)c(C#N)c2c1c(=O)n(Cc1ncc3ccccc3c1C#N)c(=O)n2C | > 10 µM | IC50 [1]: 1.8 µM; IC50 [2]: ≤ 3 µM
44 | CC#CCn1c(N2CCCNCC2)c(C#N)c2c1c(=O)n(Cc1nccc3ccccc13)c(=O)n2C | > 10 µM | inhibition in vivo at 3 mg/kg [7]: ≥ 70%
45 | CC#CCn1c(N2CCCNCC2)c(C#N)c2c1c(=O)n(Cc1nc(C)c3ccccc3n1)c(=O)n2C | > 10 µM | 
46 | CC#CCn1c(N2CCCNCC2)c(C#N)c2c1c(=O)n(Cc1c(C#N)cnc3ccccc13)c(=O)n2C | > 10 µM | IC50 [2]: ≥ 10 µM; IC50 [8]: > 10 µM
47 | CC#CCn1c(N2CCC[C@@H](N)C2)nc2c1c(=O)n(Cc1nc(C)c3ccccc3n1)c(=O)n2C [LINAGLIPTIN] |  | clearance [9]: 34 mL/min/kg; Papp A→B [6]: 0.8 ×10⁻⁶ cm/s; Cmax [10]: 21 nM; AUC [11]: 0.185 µM·h; bioavailability [12]: 9%
